US8242167B2, “Mannose derivatives for killing tumor cells” (University of Miami, priority 2006, dated 2012)

Tests used:
[1] = tested on: MDA-MB-231, breast cancer; test: Cytotoxicity under normoxia, MDA-MB-231; type: cell-based; details: column head gives the result: resistant
Protocol: (§1) Cytotoxicity assay. Cells were incubated for 24 hr at 37° C. in 5% CO2 at which time drug treatments began and continued for 72 hr. At this time, attached cells were trypsinized and combined with their respective culture media followed by centrifugation at 400 g for 5 min. The pellets were resuspended in 1 ml of Hanks solution and analyzed by Vi-Cell (Beckman Coulter, USA) cell viability analyzer.

[2] = tested on: CHOP/GADD154; test: Western blot of CHOP/GADD154 in SKBR3 cells; type: cell-based, human; details: SKBR3, normoxia, 24 hrs; 8 mM sugar analog
Protocol: (§2) Western Blot analysis. Cells were plated at 10^4 cell cm^−2 and grown under drug treatment for the indicated times. At the end of the treatment period, cells were collected and lysed with 1% SDS in 80 mM Tris-HCL (ph 7.4) buffer supplemented with a proteinase inhibitor cocktail. DNA was fragmented by sonication and protein concentrations were measured by microBCA protein assay kit (Pierce, USA). Samples were mixed with 2× Laemmli sample buffer (Bio-Rad, USA) and run on a SDS-polyacrylamide gel. Gels were transferred to nitrocellulose membranes (Amersham, USA) and probed with anti-KDEL (Stressgen, Canada) (for Grp78 and Grp94); polyclonal anti-CHOP/[…] (Santa Cruz, USA), polyclonal anti-erbB2 (DAKO, USA). Following probing, membranes were washed and incubated with an HRP conjugated secondary antibody. Chemiluminesence was detected by exposure to film. Where indicated, membranes were stripped with Stripping Buffer (Pierce, USA) and reprobed with anti-actin (Sigma, USA) primary antibody. To analyze conconavalin A (ConA) binding, the membranes were incubated with 0.2 μg/ml HRP-conjugated ConA, and chemiluminescence was detected as described.

[3] = tested on: SKOV3, ovarian cancer; test: Cytotoxicity under normoxia, SKOV3; type: cell-based; details: column head gives the result: resistant
Protocol: (§3) Cell types. The Δ^0 cells were isolated by treating osteosarcoma cell line 143B (wt) with ethidium bromide for prolonged periods, as previously described (9). Because the Δ^0 cells are uridine and pyruvate auxotrophs, they were grown in DMEM (GIBCO, USA) supplemented with 10% fetal calf serum, 50 μg/ml of uridine and 100 mM sodium pyruvate. The SKBR3 cell line was obtained from Dr. Joseph Rosenblatt's laboratory at the University of Miami. The pancreatic cancer cell lines 1420 and 1469, the ovarian cancer cell line SKOV3, the cervical cancer cell line HELA, and the osteosarcoma cell line 143B were purchased from ATCC. The non-small cell lung cancer and small cell lung cancer cell lines were derived from patients by Dr. Niramol Savaraj at the University of Miami. SKBR3 and SKOV3 cells were grown in McCoy's 5A medium; 1420, 1469 and 143B were grown in DMEM (GIBCO, USA); and HELA was grown in MEM (GIBCO, USA). The media was supplemented with 10% fetal bovine serum. All cells were grown under 5% CO2 and 37° C. Cytotoxicity assay. Cells were incubated for 24 hr at 37° C. in 5% CO2 at which time drug treatments began and continued for 72 hr. […] The pellets were resuspended in 1 ml of Hanks solution and analyzed by Vi-Cell (Beckman Coulter, USA) cell viability analyzer.

[4] = tested on: Grp78 and Grp94; test: Western blot of Grp78 and Grp94 (unfolded protein response) in SKBR3 cells under normoxia; type: cell-based, human
Protocol: as §2

[5] = tested on: erbB2; test: Western blot of erbB2 in SKBR3 cells; type: cell-based, human
Protocol: as §2

[6] = tested on: HELA, cervical cancer; test: Cytotoxicity under normoxia, HELA; type: cell-based; details: column head gives the result: sensitive
Protocol: as §3

[7] = tested on: MDA-MB-468, breast cancer; test: Cytotoxicity under normoxia, MDA-MB-468; type: cell-based; details: column head gives the result: resistant
Protocol: as §1

[8] = tested on: human tumor xenografts; details: different human tumor xenografts; cited from earlier work
[9] = tested on: Grp78 and Grp94; test: Western blot of Grp78 and Grp94 in models of hypoxia A, B & C; type: cell-based
Protocol: as §2
Three in vitro models of hypoxia. We previously characterized three models of anaerobiosis as follows: Model A are tumor cells treated with 0.05 μg/ml of oligomycin (a mitochondrial inhibitor of ATP synthase); Model B are cells that are deficient in mitochondrial DNA and Model C are cells treated in an hypoxic (0.5% O^2) chamber (Reming Bioinstruments, Redfield, N.Y.).

[10] = tested on: MCF-7, breast cancer; test: Cytotoxicity under normoxia, MCF-7; type: cell-based; details: column head gives the result: resistant
Protocol: as §1

[11] = tested on: 1420, pancreatic cancer; test: Cytotoxicity under normoxia, 1420; type: cell-based, human; details: column head gives the result: sensitive
Protocol: (§4) Cell types. The Δ^0 cells were isolated by treating osteosarcoma cell line 143B (wt) with ethidium bromide for prolonged periods, as previously described (9). Because the Δ^0 cells are uridine and pyruvate auxotrophs, they were grown in DMEM (GIBCO, USA) supplemented with 10% fetal calf serum, 50 μg/ml of uridine and 100 mM sodium pyruvate. The SKBR3 cell line was obtained from Dr. Joseph Rosenblatt's laboratory at the University of Miami. The pancreatic cancer cell lines 1420 and 1469, the ovarian cancer cell line SKOV3, the cervical cancer cell line HELA, and the osteosarcoma cell line 143B were purchased from ATCC. The non-small cell lung cancer and small cell lung cancer cell lines were derived from patients by Dr. Niramol Savaraj at the University of Miami. SKBR3 and SKOV3 cells were grown in McCoy's 5A medium; 1420, 1469 and 143B were grown in DMEM (GIBCO, USA); and HELA was grown in MEM (GIBCO, USA). The media was supplemented with 10% fetal bovine serum. All cells were grown under 5% CO2 and 37° C.
as §1

[12] = animal studies and preliminary Phase I results; cited from earlier work
[13] = tested on: HEPA-1; test: Cytotoxicity under normoxia, HEPA-1; type: cell-based, rat; details: column head gives the result: resistant
Protocol: as §1

[14] = tested on: tumor cell lines; test: Toxicity survey of tumor cell lines under normoxic conditions; type: cell-based
Protocol: as §4, §1

[15] = tested on: TG98, brain cancer (glioblastoma); test: Cytotoxicity under normoxia, TG98; type: cell-based; details: column head gives the result: sensitive
Protocol: as §1

[16] = tested on: fowl plague virus; details: chick embryo fibroblasts infected with fowl plague virus; cited from earlier work
[17] = tested on: glycoproteins (ConA binding) in SKBR3 cells; test: HRP-conjugated ConA blot of SKBR3 cell extracts; type: cell-based, human; details: SKBR3, 48 hr, 8 mM sugar analog
Protocol: as §2

[18] = tested on: 143B, osteosarcoma; test: Cytotoxicity under normoxia, 143B; type: cell-based, human; details: column head gives the result: resistant
Protocol: as §3

[19] = tested on: 1469, pancreatic cancer; test: Cytotoxicity under normoxia, 1469; type: cell-based; details: column head gives the result: resistant
Protocol: as §3

[20] = tested on: S-1 & S-2, non-small cell lung cancer; test: Cytotoxicity under normoxia, NSCLC; type: cell-based, human; details: normoxic conditions
Protocol: as §3

[21] = tested on: SKBR3 cells; test: Growth inhibitory and cytotoxicity assay in SKBR3 cells under normoxia; type: cell-based, human
Protocol: Cytotoxicity assay and Rapid DNA Content Analysis. Cells were incubated for 24 hr at 37° C. in 5% CO2 at which time drug treatments began and were continued for 72 hr. At this time, attached cells were trypsinized and combined with their respective culture media followed by centrifugation at 400 g for 5 min. Pellets containing the cells were either resuspended in 1.5 ml of a medium/trypan blue mixture for cytotoxicity assays or propidium iodide/hypotonic citrate staining solution for determining the nuclear DNA content and cell cycle by a Coulter XL flow cytometer. A minimum of 10,000 cells were analyzed to generate a DNA distribution histogram.
as §1

**Q.** Which results are given for `O=CC[C@@H](O)[C@H](O)[C@H](O)CO` [2-DG, 2-deoxy-D-glucose]?
**A.** 2-DG Resistant Cell Lines (2-DG under normoxia) [1]: MDA-MB-231, breast cancer; induction of GADD154/CHOP [2]: induced; 2-DG Resistant Cell Lines (2-DG under normoxia) [3]: SKOV3, ovarian cancer; expression of chaperones Grp78 and Grp94 ([4]; SKBR3, normoxia, 24 hrs, 8 mM sugar analog, tunicamycin 1 micro g/ml): both Grp78 and Grp94 are upregulated; up-regulation of GRP 78 and 94, dose dependence ([4]; select tumor cells, normoxic conditions): up-regulated by 2-DG and 2-FM in a dose-dependent manner; molecular weight of erbB2 [5]: decreased the molecular weight of erbB2; 2-DG Sensitive Cell Lines (2-DG under normoxia) [6]: HELA, cervical cancer; 2-DG Resistant Cell Lines (2-DG under normoxia) [7]: MDA-MB-468, breast cancer; effect on efficacy of standard chemotherapeutic agents [8]: increases the efficacy of standard chemotherapeutic agents; upregulation of the UPR (Grp78, Grp94) ([9]; hypoxia model C): both chaperones are upregulated; upregulation of the UPR (Grp78, Grp94) ([9]; hypoxia models A and B): no significant upregulation of the UPR; 2-DG Resistant Cell Lines (2-DG under normoxia) [10]: MCF-7, breast cancer; 2-DG Sensitive Cell Lines (2-DG under normoxia) [11]: 1420, pancreatic cancer; tolerability [12]: well-tolerated and relatively non-toxic to normal cells; 2-DG Resistant Cell Lines (2-DG under normoxia) [13]: HEPA-1, rat hepatoma; tumor cell lines undergoing significant cell death ([14]; 6 mM, normal oxygen tension): 6 out of 15; dose at which a select number of tumor cell lines are killed ([14]; normal oxygen tension): 4 mM; toxicity to select tumor cell types ([14]; normoxia): toxic to select tumor cell types growing under normoxia; 2-DG Sensitive Cell Lines (2-DG under normoxia) [15]: TG98, brain cancer (glioblastoma); order of potency to inhibit viral glycoprotein synthesis [16]: 2-DG>2-FDM>2-FDG; ConA binding of glycoproteins [17]: decrease ConA binding; 2-DG Resistant Cell Lines (2-DG under normoxia) [18]: 143B, osteosarcoma; 2-DG Resistant Cell Lines (2-DG under normoxia) [19]: 1469, pancreatic cancer; toxicity to NSCLC [20]: toxic; cells killed ([21]; SKBR3, 12 mM, 72 hrs, normoxic conditions): 60%; cytotoxicity measured by trypan blue exclusion ([21]; SKBR3, 72 hrs, normal oxygen conditions): toxic; 2-DG Sensitive Cell Lines (2-DG under normoxia) ([21]; column head gives the result: sensitive): SKBR3, breast cancer; rank order in growth inhibiting and killing SKBR3 cells ([21]; normoxia): 2-DG>2-FDM>>>2-FDG
